The results in this text go back to US11926616B2, “Aminopyrazine diol compounds as PI3K-γ inhibitors” (Incyte Corporation, priority 2018, dated 2024).

Each structure is given as a SMILES string. pIC50: −log10 of the molar value. Bounds are passed on as bounds.

In experiment [1] the test system is Phosphorylated Ribosomal Protein S6 (RPS6) in THP-1 cells. Nature of the experiment: THP-1 RPS6 ELISA Assay. It is filed as cell-based, Human. Conditions: Homo sapiens; THP-1 cells, serum starved, 2 hours compound, 10 nM MCP-1 for 15 minutes, Phospho-RPS6 ELISA; read-out: PI3Kγ_THP1_RPS6_ELISA IC50. As to the method:
Example A. THP-1 RPS6 ELISA Assay
To measure the Phosphorylated Ribosomal Protein S6 (RPS6) in cell lysates, THP-1 cells (Human Acute Monocytic Leukemia) are purchased from ATCC (Manassas, VA) and maintained in RPMI with 10% FBS (Gibco/Life Technologies, Carlsbad, CA). For the assay, THP-1 cells are serum starved overnight in RPMI, then plated in RPMI (2×10^5 cells/well in 90 μL) into 96-well flat-bottom tissue culture treated plates (Corning, Corning, NY), in the presence or absence of a concentration range of test compounds. Covered plates are incubated for 2 hours at 37° C., 5% CO2 then treated with or without 10 nM MCP-1(MYBioSource, San Diego, CA) for 15 minutes at 37° C., 5% CO2. Plates are centrifuged at 1600 RPM and supernatants are removed. Cells are lysed in Lysis Buffer (Cell Signaling, Danvers, MA) with Protease Inhibitor (Calbiochem/EMD, Germany), PMSF (Sigma, St Louis MO), HALTS (Thermo Fisher, Rockford, IL) for 30 min on wet ice. Cell lysates are frozen at −80° C. before testing. The lysates are tested in the Human/Mouse/Rat Phospho-RPS6 ELISA (R&D Systems, Inc. Minn, MN). The plate is measured using a microplate reader (SpectraMax M5—Molecular Devices, LLC Sunnyvale, CA) set to 450 nm with a wavelength correction of 540. IC50 determination is performed by fitting the curve of inhibitor percent inhibition versus the log of the inhibitor concentration using the GraphPad Prism 5.0 software.

In experiment [2] the target is PI3Kγ (p110γ) Recombinant Human Protein (Homo sapiens (Human), UniProt P48736). Nature of the experiment: PI3K-γ Scintillation Proximity Assay. It is filed as biochemical. The conditions noted are these: 20 μM PIP2, 2 μM ATP, 13 nM PI3Kγ, 120 min, room temperature. From the text:
Example B. PI3K-γ Scintillation Proximity Assay Materials: [γ-^33P]ATP (10 mCi/mL) and Wheat Germ Agglutinin (WGA) YSi SPA Scintillation Beads was purchased from Perkin Elmer (Waltham, MA). Lipid kinase substrate, D-myo-Phosphatidylinositol 4,5-bisphosphate (PtdIns(4,5)P2)D (+)-sn-1,2-di-O-octanoylglyceryl, 3-O-phospho linked (PIP2), CAS 204858-53-7, was purchased from Echelon Biosciences (Salt Lake City, UT). PI3Kγ (p110γ) Recombinant Human Protein was purchased from Life technology (Grand Island, NY). ATP, MgCl2, DTT, EDTA, MOPS and CHAPS were purchased from Sigma Aldrich (St. Louis, MO). The kinase reaction was conducted in polystyrene 384-well Greiner Bio-one white plate from Thermo Fisher Scientific in a final volume of 25 μL. Inhibitors were first diluted serially in DMSO and added to the plate wells before the addition of other reaction components. The final concentration of DMSO in the assay was 2%. The PI3Kγ assay was carried out at room temperature in 20 mM MOPS, pH 6.7, 10 mM MgCl2, 5 mM DTT and CHAPS 0.03%. Reactions were initiated by the addition of ATP, the final reaction mixture consisted of 20 μM PIP2, 2 μM ATP, 0.5 μCi [γ-^33P] ATP, 13 nM PI3Kγ. Reactions were incubated for 120 min and terminated by the addition of 40 μL SPA beads suspended in quench buffer: 163 mM potassium phosphate pH 7.8, 20% glycerol, 25 mM EDTA. The final concentration of SPA beads is 1.0 mg/mL. After the plate sealing, plates were shaken overnight at room temperature and centrifuged at 1500 rpm for 10 min, the radioactivity of the product was determined by scintillation counting on Topcount (Perkin-Elmer). IC50 determination was performed by fitting the curve of percent of the solvent control activity versus the log of the inhibitor concentration using the GraphPad Prism 6.0 software.

The target of experiment [3] is PI3Kδ (p110δ/p85α) Recombinant Human Protein (Homo sapiens (Human), UniProt O00329). Nature of the experiment: PI3Kδ Scintillation Proximity Assay. It is filed as biochemical. Conditions: 20 μM PIP2, 2 μM ATP, 3.4 nM PI3Kδ, 120 min, room temperature. From the text:
Example C. PI3Kδ Scintillation Proximity Assay Materials: [γ-^33P]ATP (10 mCi/mL) and Wheat Germ Agglutinin (WGA) YSi SPA Scintillation Beads was purchased from Perkin Elmer (Waltham, MA). Lipid kinase substrate, D-myo-Phosphatidylinositol 4,5-bisphosphate (PtdIns(4,5)P2)D (+)-sn-1,2-di-O-octanoylglyceryl, 3-O-phospho linked (PIP2), CAS 204858-53-7, was purchased from Echelon Biosciences (Salt Lake City, UT). PI3Kδ (p110δ/p85α) Recombinant Human Protein was purchased from Eurofins (St Charles, MO). ATP, MgCl2, DTT, EDTA, MOPS and CHAPS were purchased from Sigma Aldrich (St. Louis, MO). The kinase reaction was conducted in polystyrene 384-well Greiner Bio-one white plate from Thermo Fisher Scientific in a final volume of 25 μL. Inhibitors were first diluted serially in DMSO and added to the plate wells before the addition of other reaction components. The final concentration of DMSO in the assay was 2%. The PI3Kδ assay was carried out at room temperature in 20 mM MOPS, pH 6.7, 10 mM MgCl2, 5 mM DTT and CHAPS 0.03%. Reactions were initiated by the addition of ATP, the final reaction mixture consisted of 20 μM PIP2, 2 μM ATP, […] [γ-^33P] ATP, 3.4 nM PI3Kδ. Reactions were incubated for 120 min and terminated by the addition of 40 μL SPA beads suspended in quench buffer: 163 mM potassium phosphate pH 7.8, 20% glycerol, 25 mM EDTA. The final concentration of SPA beads is 1.0 mg/mL. After the plate sealing, plates were shaken overnight at room temperature and centrifuged at 1500 rpm for 10 min, the radioactivity of the product was determined by scintillation counting on Topcount (PerkinElmer). IC50 determination was performed by fitting the curve of percent of the solvent control activity versus the log of the inhibitor concentration using the GraphPad Prism 6.0 software.

PI3Kγ (p110γ) Recombinant Human Protein, sequence (P48736 whole entry): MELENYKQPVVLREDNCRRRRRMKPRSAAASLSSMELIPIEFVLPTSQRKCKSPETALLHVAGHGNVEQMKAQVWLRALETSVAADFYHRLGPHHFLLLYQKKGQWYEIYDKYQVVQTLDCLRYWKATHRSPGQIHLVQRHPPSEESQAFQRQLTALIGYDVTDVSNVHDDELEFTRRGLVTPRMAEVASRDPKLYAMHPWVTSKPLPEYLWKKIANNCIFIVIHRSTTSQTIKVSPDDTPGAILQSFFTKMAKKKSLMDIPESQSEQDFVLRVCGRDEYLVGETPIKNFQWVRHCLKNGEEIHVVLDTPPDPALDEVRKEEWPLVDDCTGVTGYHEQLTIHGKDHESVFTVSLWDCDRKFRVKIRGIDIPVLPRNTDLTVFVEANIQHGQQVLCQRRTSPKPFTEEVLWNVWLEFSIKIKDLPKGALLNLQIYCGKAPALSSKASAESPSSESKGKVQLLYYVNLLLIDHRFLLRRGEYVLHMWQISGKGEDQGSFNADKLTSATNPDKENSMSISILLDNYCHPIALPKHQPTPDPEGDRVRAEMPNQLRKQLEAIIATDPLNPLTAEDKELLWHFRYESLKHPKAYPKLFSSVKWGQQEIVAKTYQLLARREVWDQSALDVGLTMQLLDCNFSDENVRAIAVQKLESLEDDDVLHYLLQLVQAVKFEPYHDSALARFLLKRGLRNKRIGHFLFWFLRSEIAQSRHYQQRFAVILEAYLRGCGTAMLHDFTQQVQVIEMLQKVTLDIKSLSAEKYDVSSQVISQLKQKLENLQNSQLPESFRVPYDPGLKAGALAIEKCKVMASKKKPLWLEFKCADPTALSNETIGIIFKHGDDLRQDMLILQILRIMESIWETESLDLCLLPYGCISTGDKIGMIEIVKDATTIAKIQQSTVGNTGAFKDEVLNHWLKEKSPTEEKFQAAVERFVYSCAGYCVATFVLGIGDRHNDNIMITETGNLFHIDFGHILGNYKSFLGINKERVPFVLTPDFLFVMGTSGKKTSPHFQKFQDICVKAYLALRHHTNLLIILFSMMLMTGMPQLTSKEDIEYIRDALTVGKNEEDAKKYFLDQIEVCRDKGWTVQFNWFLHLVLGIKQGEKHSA
PI3Kδ (p110δ/p85α) Recombinant Human Protein, sequence (O00329 whole entry): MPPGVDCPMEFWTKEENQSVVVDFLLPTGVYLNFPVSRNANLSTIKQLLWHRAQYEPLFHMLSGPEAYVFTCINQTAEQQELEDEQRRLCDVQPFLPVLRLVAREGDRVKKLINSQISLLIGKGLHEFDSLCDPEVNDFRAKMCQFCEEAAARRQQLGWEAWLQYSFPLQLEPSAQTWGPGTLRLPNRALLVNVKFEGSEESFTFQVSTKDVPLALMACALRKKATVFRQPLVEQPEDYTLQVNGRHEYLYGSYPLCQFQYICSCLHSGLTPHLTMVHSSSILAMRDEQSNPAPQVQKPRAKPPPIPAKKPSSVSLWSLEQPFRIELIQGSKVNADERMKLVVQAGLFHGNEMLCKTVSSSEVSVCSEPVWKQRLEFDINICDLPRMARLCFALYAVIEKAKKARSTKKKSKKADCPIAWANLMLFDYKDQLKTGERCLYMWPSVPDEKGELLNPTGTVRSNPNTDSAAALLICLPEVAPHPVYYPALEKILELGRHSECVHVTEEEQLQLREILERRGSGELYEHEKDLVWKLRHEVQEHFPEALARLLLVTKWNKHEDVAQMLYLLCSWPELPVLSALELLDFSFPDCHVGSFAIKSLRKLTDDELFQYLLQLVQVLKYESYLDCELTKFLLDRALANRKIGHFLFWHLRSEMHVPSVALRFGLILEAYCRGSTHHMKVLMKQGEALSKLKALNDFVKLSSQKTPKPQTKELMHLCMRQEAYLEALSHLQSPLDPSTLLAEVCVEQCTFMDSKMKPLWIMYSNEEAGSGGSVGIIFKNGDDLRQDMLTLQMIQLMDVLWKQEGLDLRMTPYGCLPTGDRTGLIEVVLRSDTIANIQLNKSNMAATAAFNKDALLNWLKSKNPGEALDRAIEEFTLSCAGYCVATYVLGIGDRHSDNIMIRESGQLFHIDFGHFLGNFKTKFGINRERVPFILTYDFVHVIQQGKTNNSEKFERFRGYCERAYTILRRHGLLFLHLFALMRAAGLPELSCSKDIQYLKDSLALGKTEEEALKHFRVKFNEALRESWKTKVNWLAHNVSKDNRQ
PI3Kδ (p110δ/p85α) Recombinant Human Protein, sequence (P27986 whole entry partner): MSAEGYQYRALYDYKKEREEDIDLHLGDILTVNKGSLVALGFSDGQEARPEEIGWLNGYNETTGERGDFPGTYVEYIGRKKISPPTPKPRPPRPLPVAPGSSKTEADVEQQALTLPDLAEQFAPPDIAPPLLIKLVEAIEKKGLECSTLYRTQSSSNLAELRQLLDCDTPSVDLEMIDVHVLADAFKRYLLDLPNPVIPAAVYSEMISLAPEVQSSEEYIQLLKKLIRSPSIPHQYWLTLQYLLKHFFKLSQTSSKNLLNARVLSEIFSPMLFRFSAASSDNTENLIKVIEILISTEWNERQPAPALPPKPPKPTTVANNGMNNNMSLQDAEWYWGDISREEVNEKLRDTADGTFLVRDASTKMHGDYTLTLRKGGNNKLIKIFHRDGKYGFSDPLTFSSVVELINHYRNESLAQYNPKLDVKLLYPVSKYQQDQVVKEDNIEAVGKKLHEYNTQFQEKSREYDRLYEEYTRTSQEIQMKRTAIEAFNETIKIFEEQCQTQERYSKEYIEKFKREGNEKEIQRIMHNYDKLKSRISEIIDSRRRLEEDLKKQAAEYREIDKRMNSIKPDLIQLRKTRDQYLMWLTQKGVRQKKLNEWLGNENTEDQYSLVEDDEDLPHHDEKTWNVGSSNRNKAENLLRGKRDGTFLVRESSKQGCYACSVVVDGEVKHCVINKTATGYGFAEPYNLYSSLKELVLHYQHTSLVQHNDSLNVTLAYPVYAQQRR

As for `Cc1ccc(C(O)(CO)C(F)(F)F)cc1-c1cnc(N)c(C2CC(C(=O)N3CC(O)C3)C2)n1` (single isomer, unassigned) [Example 24, (3-(3-Amino-6-(2-methyl-5-(1,1,1-trifluoro-2,3-dihydroxypropan-2-yl)phenyl)pyrazin-2-yl)cyclobutyl)(3-hydroxyazetidin-1-yl)methanone], the pIC50 in experiment [1] is above 6.30; in experiment [2], at least 7.00; in experiment [3] it was at least 6.30.

On to `[2H]C([2H])([2H])c1ccc(C(O)(CO)C(F)(F)F)cc1-c1cnc(N)c(C(=O)NC2CC(C#N)C2)n1` (single isomer, unassigned) [Example 26], for which the results for the pIC50 in experiment [1], in experiment [2] and in experiment [3] were above 7.00, at least 7.00 and at least 7.00, respectively.

Consider `[2H]C([2H])([2H])c1ccc(C(O)(CO)C(F)(F)F)cc1-c1cnc(N)c(C(=O)N[C@H]2CCCC[C@@H]2O)n1` (single isomer, unassigned) [Example 27], for which the pIC50 in experiment [1] is above 7.00; in experiment [2], at least 7.00; in experiment [3], at least 6.30.

For the compound `[2H]C([2H])([2H])c1ccc(C(O)(CO)C(F)(F)F)cc1-c1cnc(N)c(C(=O)NC2CCOCC2O)n1` (single isomer, unassigned) [Example 28], the pIC50 in experiment [1] was above 7.00; in experiment [2], at least 7.00; in experiment [3] it was at least 6.30.

On to `[2H]C([2H])([2H])c1ccc(C(O)(CO)C(F)(F)F)cc1-c1cnc(N)c(C(=O)N[C@H]2C[C@](O)(C(F)(F)F)C2)n1` (single isomer, unassigned) [Example 29], for which the values for the pIC50 in experiment [1], in experiment [2] and in experiment [3] were above 7.00, at least 7.00 and at least 7.00, respectively.

Take `[2H]C([2H])([2H])c1ccc(C(O)(CO)C(F)(F)F)cc1-c1cnc(N)c(C(=O)N[C@]2(C)C[C@H](O)C2)n1` (single isomer, unassigned) [Example 30]: the pIC50 in experiment [1] is above 7.00; in experiment [2] it was at least 7.00; in experiment [3], at least 7.00.

As to `[2H]C([2H])([2H])c1ccc(C(O)(CO)C(F)(F)F)cc1-c1cnc(N)c(C(=O)NC23CCC(CO)(C2)C3)n1` (single isomer, unassigned) [Example 31], the pIC50 in experiment [1] was above 7.00; in experiment [2] it was at least 7.00; in experiment [3] it was at least 7.00.

As to `[2H]C([2H])([2H])c1ccc(C(O)(CO)C(F)(F)F)cc1-c1cnc(N)c(C(=O)NC23CCC(O)(C2)C3)n1` (single isomer, unassigned) [Example 37], the pIC50 was above 7.00 in experiment [1], at least 7.00 in experiment [2] and at least 7.00 in experiment [3].

Turning to `[2H]C([2H])([2H])c1ccc(C(O)(CO)C(F)F)cc1-c1cnc(N)c(C(=O)N[C@H]2CCCC[C@@H]2O)n1` (single isomer, unassigned) [Example 38], the pIC50 in experiment [1] was above 6.30; in experiment [2] it was at least 7.00; in experiment [3] it was above 5.70.

`[2H]C([2H])([2H])c1ccc(C(O)(CO)C(F)F)cc1-c1cnc(N)c(C(=O)N[C@@H]2CCCC[C@H]2O)n1` (single isomer, unassigned) [Example 39]: the results for the pIC50 in experiment [1], in experiment [2] and in experiment [3] were above 6.30, at least 7.00 and above 5.70, respectively.

As to `[2H]C([2H])([2H])c1ccc(C(O)(CO)C(F)F)cc1-c1cnc(N)c(C(=O)NC23CCC(C#N)(C2)C3)n1` (single isomer, unassigned) [Example 40], the pIC50 in experiment [1] is above 7.00; in experiment [2] it was at least 7.00; in experiment [3], at least 7.00.

For `[2H]C([2H])([2H])c1ccc(C(O)(CO)C(F)F)cc1-c1cnc(N)c(C(=O)NC2CCOCC2)n1` (single isomer, unassigned) [Example 41], the pIC50 in experiment [1] is above 7.00; in experiment [2], at least 7.00; in experiment [3], at least 7.00.

Turning to `Cc1ccc(C(O)(CO)C(F)F)cc1-c1cnc(N)c(C(=O)NC2CCOCC2)n1` (single isomer, unassigned) [Example 42], the pIC50 in experiment [1] was above 7.00; in experiment [2] it was at least 7.00; in experiment [3], at least 7.00.

Regarding `Cc1ccc([C@](O)(CO)C(F)F)cc1-c1cnc(N)c(C(=O)N[C@@H](C)CO)n1` (single isomer, unassigned) [Example 43], the pIC50 in experiment [1] is above 6.30; in experiment [2], at least 7.00; in experiment [3] it was at least 6.30.

`Cc1ccc(C(O)(CO)C(F)F)cc1-c1cnc(N)c(C(=O)NC23CCC(O)(CC2)C3)n1` (single isomer, unassigned) [Example 44, 3-Amino-6-(5-(1,1-difluoro-2,3-dihydroxypropan-2-yl)-2-methylphenyl)-N-(4-hydroxybicyclo[2.2.1]heptan-1-yl)pyrazine-2-carboxamide]: the pIC50 is above 7.00 in experiment [1], at least 7.00 in experiment [2] and at least 7.00 in experiment [3].

In the case of `Cc1ccc(C(O)(CO)C(F)F)cc1-c1cnc(N)c(C(=O)NC23CCC(C#N)(C2)C3)n1` (single isomer, unassigned) [Example 48, 3-Amino-N-(4-cyanobicyclo[2.1.1]hexan-1-yl)-6-(5-(1,1-difluoro-2,3-dihydroxypropan-2-yl)-2-methylphenyl)pyrazine-2-carboxamide], the negative-log IC50 (pIC50) is above 7.00 in experiment [1], at least 7.00 in experiment [2] and at least 7.00 in experiment [3].

As to `[2H]C([2H])([2H])c1ccc(C(O)(C(O)C(F)(F)F)C(F)(F)F)cc1-c1cnc(N)c(-c2c[nH]nc2C)n1` (stereo not drawn) [Example 21, 2-(3-(5-Amino-6-(3-methyl-1H-pyrazol-4-yl)pyrazin-2-yl)-4-(methyl-d3)phenyl)-1,1,1,4,4,4-hexafluorobutane-2,3-diol], the figures for the negative-log IC50 (pIC50) in experiment [1], in experiment [2] and in experiment [3] were above 7.00, at least 7.00 and at least 7.00, respectively.

As to `Cc1ccc(C(O)(C(C)(C)O)C(F)(F)F)cc1-c1cnc(N)c(C(=O)NC2CCOCC2)n1` (stereo not drawn) [Example 22, 3-Amino-6-(2-methyl-5-(1,1,1-trifluoro-2,3-dihydroxy-3-methylbutan-2-yl)phenyl)-N-(tetrahydro-2H-pyran-4-yl)pyrazine-2-carboxamide], the results for the pIC50 in experiment [1], in experiment [2] and in experiment [3] were above 7.00, at least 7.00 and at least 6.30, respectively.
